{
  "source": "patent US6538032B1",
  "about": "“Phytosphingosine derivatives with antitumor activity” (Charmzone Co., Ltd., priority 2001, dated 2003)",
  "tested_on": "Lewis lung carcinoma (LLC) cells",
  "experiment": "inhibition of in vivo growth of Lewis lung carcinoma",
  "set-up": "species or system BDF1 mice",
  "settings": "2000 μg, intraperitoneal, 20 doses; day 21",
  "method": "The inhibition of cancer cell growth in vivo system was examined in BDF1 mice using Lewis lung carcinoma (LLC) cells. The concentration of LLC cells used was such that each mouse was injected with one million carcinoma cells via subcutaneous injection to induce a cancer. One hundred microliter of TMP liposome (TMP 100 μg) was injected intraperitoneally and intravenously, respectively, 1 day, 3 days, 6 days and 9 days after the injection of the above LLC cells. As a positive control, AG3340 (Agouron Pharmaceuticals Co., Ltd., USA), known as an MMP-2 (matrix metaloproteinasse-2) inhibitor, was suspended in 0.2% tween/0.5% carboxymethyl cellulose and 2 mg of the resulting suspension was intraperitoneally injected daily. […]\nTMP.I liposomes (DPPC/Chol/TMP.I=5:5:1 mole ratio) having an anti-metastatic activity, was administered to BDF1 inoculated with Lewis Lung Carcinoma (LLC) cells and their inhibitory effect on the tumor growth was observed. […] The same administration was repeated after 3 days, 6 days and 9 days of the subcutaneous injection of the LLC cancer cells and 21 days after the injection each mouse was killed by dislocation of the cervical vertebra, and the volume of cancer was measured by the following equation and the results are shown in the following table 5. […]",
  "data": [
    {"smiles": "CC1(C)SCCN(S(=O)(=O)c2ccc(Oc3ccncc3)cc2)[C@H]1C(=O)NO", "note": "[AG3340]", "values": [
      {"measurement": "Volume of Cancer", "value": "1100 ± 250", "unit": "mm^3"}
    ]}
  ]
}
